In patent publication US8822447B2, “Indazole compounds useful as ketohexokinase inhibitors” (Janssen Pharmaceutica NV, priority 2010, dated 2014):

Molecular target: KHK (Homo sapiens (Human), UniProt P50053)
Test: In Vitro KHK Enzyme Assay (HTMS);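 also: primary screen measuring inhibition of KHK-catalysed conversion of D-fructose into fructose 1-phosphate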
Type: biochemical
Details: 200 μM fructose, 100 μM ATP, 2 nM KHK, 60 min at 25° C.; Fructose-1-P detected by high throughput mass spectrometry
Method: An enzymatic assay was developed to measure KHK-mediated conversion of D-fructose to Fructose-1-P (F-1-P) using High Throughput Mass Spectroscopy (HTMS) as a means of product detection. This assay served as a primary screen to evaluate the ability to inhibit KHK enzyme activity and it has been adapted to high throughput mass spectrometry (HTMS, BioTrove RapidFire™) format for higher throughput.
The compounds to be tested were dosed in 12-points concentration from 511 μM to 0.5 μM. […] The assay was carried out in 384-well plate format.

Sequence of KHK (P50053 whole entry): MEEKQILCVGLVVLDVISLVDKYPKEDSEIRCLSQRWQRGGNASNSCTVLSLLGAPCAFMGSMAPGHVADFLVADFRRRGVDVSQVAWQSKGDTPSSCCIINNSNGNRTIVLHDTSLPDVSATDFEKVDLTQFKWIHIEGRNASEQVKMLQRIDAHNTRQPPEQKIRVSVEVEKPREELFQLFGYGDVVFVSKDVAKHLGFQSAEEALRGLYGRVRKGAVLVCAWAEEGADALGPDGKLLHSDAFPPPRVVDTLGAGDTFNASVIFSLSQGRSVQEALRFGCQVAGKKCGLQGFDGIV

Row | IC50 | SMILES
1 | 610 nM | CSc1nn(-c2ccccc2)c2cc(C=CC3CCCN3)ccc12 (stereo not shown) [Compound 175, 3-Methylsulfanyl-1-phenyl-6-(2-pyrrolidin-2-yl-vinyl)-1H-indazole]
2 | 790 nM | CSc1nn(-c2ccccc2)c2cc(C=CC3CCCNC3)ccc12 (stereo not shown) [Compound 176, 3-Methylsulfanyl-1-phenyl-6-(2-piperidin-3-yl-vinyl)-1H-indazole]
3 | > 10000 nM | CSc1nn(-c2ccccc2)c2cc(C=Cc3ccc(C)nc3)ccc12 [Compound 178, 6-[2-(6-Methyl-pyridin-3-yl)-vinyl]-3-methylsulfanyl-1-phenyl-1H-indazole]
4 | 920 nM | CSc1nn(-c2ccccc2)c2cc(CCC3CCNCC3)ccc12 [Compound 185, 3-Methylsulfanyl-1-phenyl-6-(2-piperidin-4-yl-ethyl)-1H-indazole]

More lines, now with the values behind:

Row | SMILES | IC50
5 | CSc1nn(-c2cccc(F)c2)c2cc(C3=CCNCC3)ccc12 [Compound 179, 1-(3-Fluoro-phenyl)-3-methylsulfanyl-6-(1,2,3,6-tetrahydro-pyridin-4-yl)-1H-indazole] | 40 nM
6 | CSc1nn(-c2ccccc2C)c2cc(C3=CCNCC3)ccc12 [Compound 180, 3-Methylsulfanyl-6-(1,2,3,6-tetrahydro-pyridin-4-yl)-1-o-tolyl-1H-indazole] | > 10000 nM
7 | CSc1nn(-c2ccc(C)cc2)c2cc(C3=CCNCC3)ccc12 [Compound 184, 3-Methylsulfanyl-6-(1,2,3,6-tetrahydro-pyridin-4-yl)-1-p-tolyl-1H-indazole] | 40 nM
